From patent US20130289071A1, “TETRAZOLYL-TETRAHYDROPYRIDINE COMPOUNDS FOR INFLAMMATION AND IMMUNE-RELATED USES” (Synta Pharmaceuticals Corp., priority 2010, published 2013)

What was measured:
IL-2 production = assay: Inhibition of IL-2 production (Jurkat/PHA/1% FBS, ELISA); format: cell-based; conditions: Homo sapiens, Jurkat, 20 h, Jurkat cells, PHA 2.5 μg/mL
Procedure: JurkaT-cells were placed in a 96 well plate (0.5 million cells per well in 1% FBS medium), and then a test compound of this invention was added at different concentrations. After 10 minutes, the cells were activated with PHA (final concentration 2.5 μg/mL) and incubated for 20 hours at 37° C. under 5% CO2. The final volume was 200 μL. Following incubation, the cells were centrifuged, and the supernatants collected and stored at −70° C. prior to assaying for IL-2 production. A commercial ELISA kit (IL-2 Eli-pair, Diaclone Research, Besancon, France) was used to detect production of IL-2, from which dose response curves were obtained. The IC50 value was calculated as the concentration at which 50% of maximum IL-2 production after stimulation was inhibited versus a non-stimulation control.

[1] = target: T1, CRAC ion channels (ICRAC current), RBL-2H3 cells (Rattus norvegicus, UniProt Q5M848); assay: Automated patch clamp (Qpatch) inhibition of ICRAC current in RBL-2H3 cells; format: cell-based; conditions: 100 nM compound, % ICRAC inhibition
T1 construct: endogenous in cells; host or cells: RBL-2H3 (rat basophilic leukemia) cells
T1 sequence (Q5M848 whole entry): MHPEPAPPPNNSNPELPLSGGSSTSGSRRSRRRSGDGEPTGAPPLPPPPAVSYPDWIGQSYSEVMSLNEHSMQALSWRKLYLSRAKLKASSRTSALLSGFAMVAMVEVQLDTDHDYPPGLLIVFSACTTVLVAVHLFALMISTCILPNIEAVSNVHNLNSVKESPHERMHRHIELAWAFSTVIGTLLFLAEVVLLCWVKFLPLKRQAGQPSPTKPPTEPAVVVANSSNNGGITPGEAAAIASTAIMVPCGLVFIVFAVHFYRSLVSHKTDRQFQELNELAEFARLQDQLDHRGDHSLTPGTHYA
Procedure: Automated patch clamp experiments are conducted with the QPatch 16 (Sophion Bioscience, Ballerup, Denmark) at room temperature (21-25° C.). Immediately following the establishment of giga-seal whole-cell configuration, the cells membrane potential is clamped at 0 mV. Voltage ramps of 50 ms duration spanning the voltage range of −100 to +100 mV are then stimulated at a rate of 0.33 Hz. Currents are filtered at 2.9 kHz and digitized at 200 μs intervals. Capacitive currents and series resistance are determined and corrected before each voltage ramp using the automatic capacitance compensation.
RBL-2H3 are grown in DMEM media supplemented with 10% fetal bovine serum, penicillin 100 U/ml and streptomycin […] in an atmosphere of 95% air/5% CO2. Cells are grown to confluence in 175 cm^2 tissue culture flask. On the experimental day, cells harvested with 0.25% trypsin/0.02% EDTA and resuspended in extracellular solution at density of 5×10^6 cells/ml.
The intracellular solution contains Cs-Glutamate 90 mM; NaCl 8 mM; MgCl2 3 mM; CsCl 20 mM; CsBAPTA 20 mM; HEPES 10 mM; InsP3 0.02 mM; pH=7.2 adjusted with CsOH.
The extracellular solution contains NMDGCl 120 mM; KCl 5.4 mM; CsCl 10 mM; CaCl2 10 mM; MgCl2 1 mM; HEPES 10 mM; Glucose 5.5 mM; at pH=7.4 adjusted with HCl.
ICRAC currents are measured using 50 msec voltage ramps between −100 mV to +100 mV. The voltage ramps are stimulated every 3 seconds for at least 570 seconds. The maximum ICRAC current is allowed to develop for at least 135 seconds. Compounds diluted in extracellular solutions are then applied twice, 30 seconds apart. After incubating the cells with compound for 435 seconds, a reference solution is applied at the end of the experiment. The reference solution is a Ca^2+ free extracellular solution.
Off-line analysis with the Qpatch software is used to plot the current value at −80 mV for each ramp trace against time. The resulting current versus time data is then exported into a Microsoft Excel spreadsheet. The ICRAC membrane currents are separated from the cells basal background currents by either subtracting out the average membrane current values during the first 1-3 traces, or the average membrane current values obtained with the reference solution at the end of the experiment. The % ICRAC inhibition in each cell is calculated by comparing the amount of current just prior to the first compound addition to the amount of current after the cells has been perfused with the compound for at least 400 seconds.

SMILES	IC50 (IL-2 production) [nM]	inhibition at 0.1 µM [1] [%]
Cc1ccncc1C(=O)Nc1ccc(C2=C(Cl)CCN(c3nnn(C)n3)C2)cc1 [Compound 45]	59	60
CC1=C(c2ccc(NC(=O)c3ccncc3C)cc2)CN(c2nnn(C)n2)CC1 [Compound 46]	60	54
CC1=C(c2ccc(NC(=O)c3cnccc3C)cc2)CN(c2nnn(C)n2)CC1 [Compound 47]	62	70
CC1=C(c2cnc(NC(=O)c3ccccc3F)cn2)CN(c2nnn(C)n2)CC1 [Compound 54]	92	77
CC1=C(c2cnc(NC(=O)c3cc(F)ccc3Cl)cn2)CN(c2nnn(C)n2)CC1 [Compound 56]	99	84
CC1=C(c2cnc(NC(=O)c3cccc(F)c3C)cn2)CN(c2nnn(C)n2)CC1 [Compound 61]	116	64

The next compounds have a lower IC50 (IL-2 production) than those just listed; values first:

IC50 (IL-2 production) [nM]	inhibition at 0.1 µM [1] [%]	SMILES
54	60	CC1=C(c2ccc(C(=O)Nc3c(F)cccc3F)cc2)CN(c2nnn(C)n2)CC1 [Compound 41]
53	54	Cn1nnc(N2CCC(C3CC3)=C(c3cnc(NC(=O)c4c(F)cccc4F)cn3)C2)n1 [Compound 40]
51	48	CC1=C(c2ccc(NC(=O)c3cccc(F)c3C)cc2)CN(c2nnn(C)n2)CC1 [Compound 38]
51	69	Cn1nnc(N2CCC(C3CC3)=C(c3cnc(NC(=O)c4cccc(F)c4F)cn3)C2)n1 [Compound 39]
50	61	CC1=C(c2cnc(NC(=O)c3cccc(F)c3F)cn2)CN(c2nnn(C)n2)CC1 [Compound 37]
